Measurements: patent US10392422B2, “Macrocyclic broad spectrum antibiotics” (priority 2014, dated 2019)

Experiments:
[1] = tested on: Methicillin Resistant Staphylococcus aureus strain USA 300 (NRS384); assay: MIC, broth micro-dilution technique (CLSI); format: cell-based; conditions: Table 1 protocol: serial 2-fold dilutions starting from 64 μg/ml; 35° C., 22 hours
Summary of the method: (§1)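 Cation-adjusted MHB + 0.002% Tween-80; 10-point 2-fold series starting 64 μg/ml (modified protocol: 4 μg/mL). Final inoculum OD600 0.0005; 35° C, 22 h. MIC per CLSI M07-A8 broth microdilution.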

[2] = tested on: Escherichia coli MC4100 harboring the IMP4213; assay: MIC, broth micro-dilution technique (CLSI); format: cell-based; conditions: Table 1 protocol: serial 2-fold dilutions starting from 64 μg/ml; 35° C., 22 hours
Summary of the method: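 MICs determined after 35 °C, 22 h incubation of bacteria (final OD600 0.0005) with 10-point 2-fold compound series. Series topped at 64 μg/ml in the standard protocol or 4 μg/mL in the modified one. Medium: cation-adjusted Mueller Hinton broth plus 0.002% Tween-80. E. coli MC4100 imp4213 has a permeabilized outer membrane.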

[3] = tested on: MRSA strain USA300; assay: Time-kill assay; format: cell-based, Staphylococcus aureus; conditions: 1 ug/mL imipenem plus 16 ug/mL Compound 155; initial density 1*10^7 cfu/mL; FIG. 2
Protocol: Time-kill experiments enable quantification of rate of bacterial growth or death in the presence of a fixed concentration of one or more antibiotics (Arhin. F., et. al., Current Protocols in Microbiology 17.1.1-17.1.22, February 2010). Time-kill experiments were performed in 96-well incubation plates using Mueller Hinton II Broth+0.002% Tween-80 as the growth media. Individual wells contained imipenem alone, Compound 155 alone, or a combination of both agents at various concentrations. MRSA strain USA300 was grown overnight at 35° C. on Mueller Hinton Agar plates, and colonies were suspended in Mueller Hinton II Broth+0.002% Tween-80 to a final density of 2*10^8 cfu/mL. To each well of the incubation plates, 5 uL of this suspension were added, resulting in an initial density of 1*10^7 cfu/mL. Plates were incubated at 35° C., and at various time points 30 ul samples were removed, mixed 1:1 with 25 mg/ml activated carbon, serially diluted in sterile phosphate buffered saline supplemented with 0.05% Tween 20, and spotted onto Mueller Hinton Agar plates to enable cfu quantification. Colonies were counted and the cfu/ml at each time point calculated by based on the dilution factor and volume spotted.

[4] = tested on: MRSA COL (NRS100); assay: MIC, broth micro-dilution technique (CLSI); format: cell-based, Staphylococcus aureus; conditions: Table 1 protocol: serial 2-fold dilutions starting from 64 μg/ml; 35° C., 22 hours
Summary of the method: as §1

[5] = tested on: MRSA strain USA300; assay: SIC determination with partner beta-lactam antibiotics; format: cell-based, Staphylococcus aureus
Protocol: Many compounds in the Examples, including Compound 155, synergize with a wide range of beta-lactam antibiotics as quantified by SIC determination, where the SIC is measured and defined in a manner identical to the MIC, […] being tested.

In the case of CCCCCCCCCCNCCC(=O)N[C@@H](CCCCN)C(=O)N(C)[C@@H]1C(=O)N[C@@H](C)C(=O)N[C@H](C(=O)N[C@@H](C)C(=O)N2CCC[C@H]2C(N)=O)Cc2ccc(O)c(c2)-c2cc1ccc2O.O=CO [Compound 155], the “MIC (μg/mL) S. aureus” value [1] is reported as 2.8 µg/mL, the “MIC (μg/mL) E. coli” value [2] is reported as 64 µg/mL and the “time-kill: reduction of viable cells, combination compared with either agent alone” value [3] is reported as “synergistic”. The “MIC (μg/mL) (COL)” value [4] was 1.3 µg/mL, the “Compound 155 SIC” value ([5]; MRSA strain USA300, media contains partner beta-lactam Amoxicillin/Clav at 1/4x its MIC) was 0.25 µg/mL and the “Compound 155 SIC” value ([5]; MRSA strain USA300, media contains partner beta-lactam Ampicillin at 1/4x its MIC) was 1 µg/mL. For the same molecule, the “Compound 155 SIC” value ([5]; MRSA strain USA300, media contains partner beta-lactam Azlocillin at 1/4x its MIC) was 1 µg/mL, the “Compound 155 SIC” value ([5]; MRSA strain USA300, media contains partner beta-lactam Biapenem at 1/4x its MIC) was 0.0625 µg/mL and the “Compound 155 SIC” value ([5]; MRSA strain USA300, media contains partner beta-lactam Carbenicillin at 1/4x its MIC) was 0.5 µg/mL. The “Compound 155 SIC” value ([5]; MRSA strain USA300, media contains partner beta-lactam Cefaclor at 1/4x its MIC) was 0.25 µg/mL, the “Compound 155 SIC” value ([5]; MRSA strain USA300, media contains partner beta-lactam Cefamandole at 1/4x its MIC) was 0.25 µg/mL and the “Compound 155 SIC” value ([5]; MRSA strain USA300, media contains partner beta-lactam Cefazolin at 1/4x its MIC) was 0.125 µg/mL. The “Compound 155 SIC” value ([5]; MRSA strain USA300, media contains partner beta-lactam Cefdinir at 1/4x its MIC) was no more than 0.0156 µg/mL, the “Compound 155 SIC” value ([5]; MRSA strain USA300, media contains partner beta-lactam Cefepime at 1/4x its MIC) was 0.125 µg/mL and the “Compound 155 SIC” value ([5]; MRSA strain USA300, media contains partner beta-lactam Cefixime at 1/4x its MIC) was 0.25 µg/mL. The “Compound 155 SIC” value ([5]; MRSA strain USA300, media contains partner beta-lactam Cefmetazole at 1/4x its MIC) was 0.5 µg/mL, the “Compound 155 SIC” value ([5]; MRSA strain USA300, media contains partner beta-lactam Cefonicid at 1/4x its MIC) was 0.25 µg/mL and the “Compound 155 SIC” value ([5]; MRSA strain USA300, media contains partner beta-lactam Cefotaxime at 1/4x its MIC) was 0.125 µg/mL. The “Compound 155 SIC” value ([5]; MRSA strain USA300, media contains partner beta-lactam Cefotetan at 1/4x its MIC) was 0.5 µg/mL, the “Compound 155 SIC” value ([5]; MRSA strain USA300, media contains partner beta-lactam Cefoxitin at 1/4x its MIC) was 0.25 µg/mL and the “Compound 155 SIC” value ([5]; MRSA strain USA300, media contains partner beta-lactam Cefpodoxime at 1/4x its MIC) was 0.125 µg/mL. The “Compound 155 SIC” value ([5]; MRSA strain USA300, media contains partner beta-lactam Cefprozil at 1/4x its MIC) was 0.25 µg/mL, the “Compound 155 SIC” value ([5]; MRSA strain USA300, media contains partner beta-lactam Ceftazidime at 1/4x its MIC) was 0.5 µg/mL and the “Compound 155 SIC” value ([5]; MRSA strain USA300, media contains partner beta-lactam Ceftizoxime at 1/4x its MIC) was 0.25 µg/mL. The “Compound 155 SIC” value ([5]; MRSA strain USA300, media contains partner beta-lactam Ceftriaxone at 1/4x its MIC) was 0.0625 µg/mL, the “Compound 155 SIC” value ([5]; MRSA strain USA300, media contains partner beta-lactam Cephalothin at 1/4x its MIC) was 0.0625 µg/mL and the “Compound 155 SIC” value ([5]; MRSA strain USA300, media contains partner beta-lactam Doripenem at 1/4x its MIC) was 0.125 µg/mL. For the same molecule, the “Compound 155 SIC” value ([5]; MRSA strain USA300, media contains partner beta-lactam Ertapenem at 1/4x its MIC) was 0.25 µg/mL, the “Compound 155 SIC” value ([5]; MRSA strain USA300, media contains partner beta-lactam Faropenem at 1/4x its MIC) was no more than 0.0156 µg/mL and the “Compound 155 SIC” value ([5]; MRSA strain USA300, media contains partner beta-lactam Imipenem at 1/4x its MIC) was 0.125 µg/mL. For the same molecule, the “Compound 155 SIC” value ([5]; MRSA strain USA300, media contains partner beta-lactam Mecillinam at 1/4x its MIC) was 1 µg/mL, the “Compound 155 SIC” value ([5]; MRSA strain USA300, media contains partner beta-lactam Meropenem at 1/4x its MIC) was 0.25 µg/mL and the “Compound 155 SIC” value ([5]; MRSA strain USA300, media contains partner beta-lactam Methicillin at 1/4x its MIC) was 0.25 µg/mL. For the same molecule, the “Compound 155 SIC” value ([5]; MRSA strain USA300, media contains partner beta-lactam Mezlocillin at 1/4x its MIC) was 0.5 µg/mL, the “Compound 155 SIC” value ([5]; MRSA strain USA300, media contains partner beta-lactam Moxalactam at 1/4x its MIC) was 0.125 µg/mL and the “Compound 155 SIC” value ([5]; MRSA strain USA300, media contains partner beta-lactam Oxacillin at 1/4x its MIC) was 0.125 µg/mL. The “Compound 155 SIC” value ([5]; MRSA strain USA300, media contains partner beta-lactam Piperacillin/tazobactam at 1/4x its MIC) was 0.5 µg/mL, the “Compound 155 SIC” value ([5]; MRSA strain USA300, media contains partner beta-lactam Ticarcillin at 1/4x its MIC) was 0.125 µg/mL and the “Fold reduction in Compound 155 MIC” value ([5]; MRSA strain USA300, partner beta-lactam Amoxicillin/Clav at 1/4x its MIC) was 16. The “Fold reduction in Compound 155 MIC” value ([5]; MRSA strain USA300, partner beta-lactam Ampicillin at 1/4x its MIC) was 4, the “Fold reduction in Compound 155 MIC” value ([5]; MRSA strain USA300, partner beta-lactam Azlocillin at 1/4x its MIC) was 4 and the “Fold reduction in Compound 155 MIC” value ([5]; MRSA strain USA300, partner beta-lactam Biapenem at 1/4x its MIC) was 64. For the same molecule, the “Fold reduction in Compound 155 MIC” value ([5]; MRSA strain USA300, partner beta-lactam Carbenicillin at 1/4x its MIC) was 8, the “Fold reduction in Compound 155 MIC” value ([5]; MRSA strain USA300, partner beta-lactam Cefaclor at 1/4x its MIC) was 16 and the “Fold reduction in Compound 155 MIC” value ([5]; MRSA strain USA300, partner beta-lactam Cefamandole at 1/4x its MIC) was 16. For the same molecule, the “Fold reduction in Compound 155 MIC” value ([5]; MRSA strain USA300, partner beta-lactam Cefazolin at 1/4x its MIC) was 32, the “Fold reduction in Compound 155 MIC” value ([5]; MRSA strain USA300, partner beta-lactam Cefdinir at 1/4x its MIC) was greater than 256 and the “Fold reduction in Compound 155 MIC” value ([5]; MRSA strain USA300, partner beta-lactam Cefepime at 1/4x its MIC) was 32. For the same molecule, the “Fold reduction in Compound 155 MIC” value ([5]; MRSA strain USA300, partner beta-lactam Cefixime at 1/4x its MIC) was 16, the “Fold reduction in Compound 155 MIC” value ([5]; MRSA strain USA300, partner beta-lactam Cefmetazole at 1/4x its MIC) was 8 and the “Fold reduction in Compound 155 MIC” value ([5]; MRSA strain USA300, partner beta-lactam Cefonicid at 1/4x its MIC) was 16. The “Fold reduction in Compound 155 MIC” value ([5]; MRSA strain USA300, partner beta-lactam Cefotaxime at 1/4x its MIC) was 32, the “Fold reduction in Compound 155 MIC” value ([5]; MRSA strain USA300, partner beta-lactam Cefotetan at 1/4x its MIC) was 8 and the “Fold reduction in Compound 155 MIC” value ([5]; MRSA strain USA300, partner beta-lactam Cefoxitin at 1/4x its MIC) was 16. The “Fold reduction in Compound 155 MIC” value ([5]; MRSA strain USA300, partner beta-lactam Cefpodoxime at 1/4x its MIC) was 32, the “Fold reduction in Compound 155 MIC” value ([5]; MRSA strain USA300, partner beta-lactam Cefprozil at 1/4x its MIC) was 16 and the “Fold reduction in Compound 155 MIC” value ([5]; MRSA strain USA300, partner beta-lactam Ceftazidime at 1/4x its MIC) was 8. For the same molecule, the “Fold reduction in Compound 155 MIC” value ([5]; MRSA strain USA300, partner beta-lactam Ceftizoxime at 1/4x its MIC) was 16, the “Fold reduction in Compound 155 MIC” value ([5]; MRSA strain USA300, partner beta-lactam Ceftriaxone at 1/4x its MIC) was 64 and the “Fold reduction in Compound 155 MIC” value ([5]; MRSA strain USA300, partner beta-lactam Cephalothin at 1/4x its MIC) was 64. The “Fold reduction in Compound 155 MIC” value ([5]; MRSA strain USA300, partner beta-lactam Doripenem at 1/4x its MIC) was 32, the “Fold reduction in Compound 155 MIC” value ([5]; MRSA strain USA300, partner beta-lactam Ertapenem at 1/4x its MIC) was 16 and the “Fold reduction in Compound 155 MIC” value ([5]; MRSA strain USA300, partner beta-lactam Faropenem at 1/4x its MIC) was greater than 256. For the same molecule, the “Fold reduction in Compound 155 MIC” value ([5]; MRSA strain USA300, partner beta-lactam Imipenem at 1/4x its MIC) was 32, the “Fold reduction in Compound 155 MIC” value ([5]; MRSA strain USA300, partner beta-lactam Mecillinam at 1/4x its MIC) was 4 and the “Fold reduction in Compound 155 MIC” value ([5]; MRSA strain USA300, partner beta-lactam Meropenem at 1/4x its MIC) was 16. For the same molecule, the “Fold reduction in Compound 155 MIC” value ([5]; MRSA strain USA300, partner beta-lactam Methicillin at 1/4x its MIC) was 16, the “Fold reduction in Compound 155 MIC” value ([5]; MRSA strain USA300, partner beta-lactam Mezlocillin at 1/4x its MIC) was 8 and the “Fold reduction in Compound 155 MIC” value ([5]; MRSA strain USA300, partner beta-lactam Moxalactam at 1/4x its MIC) was 32. The “Fold reduction in Compound 155 MIC” value ([5]; MRSA strain USA300, partner beta-lactam Oxacillin at 1/4x its MIC) was 32, the “Fold reduction in Compound 155 MIC” value ([5]; MRSA strain USA300, partner beta-lactam Piperacillin/tazobactam at 1/4x its MIC) was 8 and the “Fold reduction in Compound 155 MIC” value ([5]; MRSA strain USA300, partner beta-lactam Ticarcillin at 1/4x its MIC) was 32. The “Compound 155 MIC” value ([5]; MRSA strain USA300, partner beta-lactam: None) was 4 µg/mL and the “synergy with beta-lactam antibiotics as quantified by SIC determination” value ([5]; SIC less than or equal to 1/4 MIC means sum of the FICs ≤0.5, indicating synergy) was “synergize”.
